Data reported in paper PMC7265429, “Characterization of a new small-molecule inhibitor of HDAC6 in glioblastoma” (Cell Death & Disease, 2020).

System: GNS166 cells
Test: Microarray whole-transcriptome gene expression analysis
Format: cell-based, human
Conditions: DMSO vs SAHA, downregulated
Experimental: Whole-transcriptome analysis was performed from 300 ng of RNA using HuGene-2_0-st-v1 expression array (Affymetrix), which covers 48,226 transcripts. Raw data were first checked for quality purposes through the Affymetrix® Expression Console™ Software v1.4.1 and TAC software v4.0. Then, data were normalized using the Robust Multi-array Average (RMA) and analyzed by Limma tool. Probesets with FDR-corrected p-values smaller than 0.05 were selected. Functional enrichment on Gene Ontology (GO) biological processes was performed on a smaller subset of the differentially expressed genes (corrected p-value < 0.001) by means of Broad Institute GSEA. […] The data that support this study have been deposited in NCBI´s Gene Expression Omnibus and are accessible through GEO series accession number GSE143887.

SMILES: O=C(CCCCCCC(=O)Nc1ccccc1)NO [SAHA, Suberoylanilide hydroxamic acid]
- logFC IRAK1 (transcript TC0X[…].hg.1): -1.235
- logFC B3GALT6 (transcript TC0100006494.hg.1): -0.9983
- logFC HMGN2 (transcript TC0100007463.hg.1): -1.008
- logFC CDCA8 (transcript TC0100007841.hg.1): -1.807
- logFC ERMAP (transcript TC0100008033.hg.1): -2.3938
- logFC KIF2C (transcript TC0100008101.hg.1): -1.858
- logFC CMPK1 (transcript TC0100008190.hg.1): -1.434
- logFC NEXN (transcript TC0100008807.hg.1): -1.823
- logFC HIST2H2AA3 (transcript TC0100009876.hg.1): -1.529
- logFC HIST2H3A (transcript TC0100009877.hg.1): -1.612
- logFC GABPB2 (transcript TC0100009939.hg.1): -1.449
- logFC CKS1B (transcript TC0100010100.hg.1): -1.171
- logFC PMF1 (transcript TC0100010161.hg.1): -1.537
- logFC NUF2 (transcript TC0100010397.hg.1): -2.331
- logFC FAM163A (transcript TC0100010786.hg.1): -1.762
- logFC CENPF (transcript TC0100011581.hg.1): -1.482
- logFC EPHA2 (transcript TC0100013028.hg.1): -1.043
- logFC STMN1 (transcript TC0100013369.hg.1): -1.036
- logFC HIST2H3A (transcript TC0100015701.hg.1): -1.662
- logFC ASPM (transcript TC0100016831.hg.1): -1.487
- logFC DDX59 (transcript TC0100016893.hg.1): -1.42
- logFC NUCKS1 (transcript TC0100017075.hg.1): -1.264
- logFC EIF2D (transcript TC0100017100.hg.1): -1.459
- logFC CD34 (transcript TC0100017142.hg.1): -2.059
- logFC LIN9 (transcript TC0100017523.hg.1): -1.223
- logFC ZBTB8A (transcript TC0100018209.hg.1): -1.532
- logFC HIST2H2AA4 (transcript TC0100018482.hg.1): -1.569
- logFC IAH1 (transcript TC0200006648.hg.1): -1.549
- logFC RRM2 (transcript TC0200006677.hg.1): -1.424
- logFC KCNIP3 (transcript TC0200008464.hg.1): -2.439
- logFC NCAPH (transcript TC0200008502.hg.1): -2.071
- logFC GALNT5 (transcript TC0200009739.hg.1): -2.15
- logFC CFLAR (transcript TC0200010443.hg.1): -1.832
- logFC ADI1 (transcript TC0200011551.hg.1): -2.286
- logFC EVA1A (transcript TC0200013135.hg.1): -1.744
- logFC NMI (transcript TC0200014610.hg.1): -2.309
- logFC SPC25 (transcript TC0200014845.hg.1): -1.44
- logFC SLC16A14 (transcript TC0200015971.hg.1): -1.405
- logFC HJURP (transcript TC0200016099.hg.1): -1.261
- logFC CENPA (transcript TC0200016417.hg.1): -1.421
- logFC SPDYA (transcript TC0200016423.hg.1): -1.919
- logFC ACYP2 (transcript TC0200016447.hg.1): -1.266
- logFC FANCD2 (transcript TC0300006575.hg.1): -1.767
- logFC KIF15 (transcript TC0300007223.hg.1): -1.9928
- logFC ARHGAP31 (transcript TC0300008467.hg.1): -1.69
- logFC FAIM (transcript TC0300008952.hg.1): -1.871
- logFC RTP4 (transcript TC0300009799.hg.1): -1.468
- logFC SUCLG2 (transcript TC0300011436.hg.1): -1.146
- logFC BDH1 (transcript TC0300013751.hg.1): -1.665
- logFC NAALADL2 (transcript TC0300013904.hg.1): -1.839
- logFC KCNMB2 (transcript TC0300013906.hg.1): -1.816
- logFC NEIL3 (transcript TC0400009396.hg.1): -0.9384
- logFC CCNA2 (transcript TC0400011748.hg.1): -1.45
- logFC GPM6A (transcript TC0400012473.hg.1): -1.528
- logFC TRIP13 (transcript TC0500006472.hg.1): -1.825
- logFC NDUFS6 (transcript TC0500006523.hg.1): -0.9474
- logFC IL7R (transcript TC0500007138.hg.1): -2.627
- logFC NNT (transcript TC0500007303.hg.1): -1.728
- logFC CCNB1 (transcript TC0500007665.hg.1): -1.603
- logFC KIF20A (transcript TC0500008777.hg.1): -2.05
- logFC HIGD2A (transcript TC0500009587.hg.1): -1.228
- logFC NSD1 (transcript TC0500009610.hg.1): -1.443
- logFC ARSB (transcript TC0500011228.hg.1): -1.571
- logFC BRD8 (transcript TC0500012162.hg.1): -1.077
- logFC CRHBP (transcript TC0500013193.hg.1): -2.74
- logFC PCBD2 (transcript TC0500013230.hg.1): -1.097
- logFC FAM169A (transcript TC0500013328.hg.1): -1.569
- logFC HIST1H4C (transcript TC0600007268.hg.1): -1.755
- logFC HIST1H2BF (transcript TC0600007282.hg.1): -1.711
- logFC HIST1H4E (transcript TC0600007284.hg.1): -2.005
- logFC HIST1H2AE (transcript TC0600007285.hg.1): -1.564
- logFC HIST1H2AL (transcript TC0600007380.hg.1): -1.235
- logFC GTF3C6 (transcript TC0600009140.hg.1): -2.124
- logFC HIST1H4B (transcript TC0600011123.hg.1): -1.235
- logFC HIST1H3B (transcript TC0600011124.hg.1): -1.868
- logFC HIST1H3D (transcript TC0600011135.hg.1): -1.444
- logFC HIST1H2BG (transcript TC0600011136.hg.1): -1.568
- logFC HIST1H4H (transcript TC0600011145.hg.1): -1.26
- logFC HIST1H2BJ (transcript TC0600011184.hg.1): -1.604
- logFC HIST1H2BK (transcript TC0600011185.hg.1): -1.804
- logFC PSMB8 (transcript TC0600011507.hg.1): -1.143
- logFC DNPH1 (transcript TC0600011870.hg.1): -1.264
- logFC FBXO5 (transcript TC0600013602.hg.1): -1.287
- logFC HIST1H2AG (transcript TC0600014083.hg.1): -2.001
- logFC NUDT3 (transcript TC0600014283.hg.1): -1.135
- logFC LANCL2 (transcript TC0700007610.hg.1): -1.812
- logFC GTF2I (transcript TC0700008010.hg.1): -1.635
- logFC MEPCE (transcript TC0700008542.hg.1): -1.622
- logFC CAV1 (transcript TC0700008873.hg.1): -0.9681
